Results published in US4377594A, “Derivative of 4-(N-(substituted-benzylidene)amino-methyl cyclohexane-1-carboxylic acid” (Kureha Kagaku Kogyo Kabushiki Kaisha, priority 1980, dated 1983).
Structures can show the parent of a compound that is named as a salt. Where two headings read alike, the source gives them in different places.

How the values were obtained:
[1] = system: Rabbit platelet rich plasma (PRP); platelet aggregation; assay: inhibitory effect on platelet aggregation (induced by sodium arachidonate); format: cell-based; conditions: rabbit PRP 300,000/μl; sodium arachidonate tested at 400 μM; preincubated at 37° C. for 5 min
Experimental: (1) Examination method for inhibitory effect on platelet aggregation
Rabbit platelet rich plasma (PRP) was used for Aggregation Tests. PRP was prepared by centrifugation of blood collected from the ear vein of Rabbit and diluted into number-concentration 300,000/μl with platelet poor plasma. Platelet aggregation was induced by Sodium Arachidonate and monitored (measured) with a four channel platelet aggregation Tracer PAT-4A (Niko Bioscience Co., Japan). Aggregation Tracer tube contaning 230 μl PRP was preincubated at 37° C. for 5 min with each Specimen.
^(1) The minimum concentration (μM) of each Specimen for inhibitin
completely (100%) the platelet aggregating effect by sodium arachidonate

[2] = acute toxicity, peroral administration; conditions: in vivo, po; peroral, aqueous solution, female JCL-ICR mouse 5 to 6 weeks
Excerpt: (§1) (3) Examination method for acute toxicity
(§2) Acute toxicity was examined by administering perorally an aqueous solution of each Specimen to female JCL-ICR mouse of 5 to 6 weeks after birth.
(§3) ^(3) Median lethal dose (LD50), that is, dose for getting 50% of
(§4) mice to death, in unit of mg per one kilogram of body weight of mouse.

[3] = system: Rat's polynuclear leukocyte migration; assay: inhibitory effect on polynuclear leukocyte migration (Boyden method); format: cell-based; conditions: read-out: Inhibition rate of polynuclear leukocyte migration
Experimental: (2) Examination method for inhibitory effect on polynuclear leukocyte migration
Rat's polynuclear leukocyte migration was examined by Boyden method (refer to Japanese J. Clin. Med., 27(9), 172 (1969)) as follows; a mixture of 10 parts by volume of culture filtrate of E. coli and one part by volume of serum was incubated at 37° C. for one hour and diluted into 5-times volume with physiological salt solution, and the mixture obtained was used as an attractant. After preincubating polynuclear leukocyte suspension with each specimen for 10 min, migration of polynuclear leukocytes was examined.
^(2) The average value of inhibition rate (%) of polynuclear leukocyt
migration at each concentration (μM) of each Specimen.

[4] = system: female JCL-ICR mouse; assay: acute toxicity, peroral administration; conditions: mouse, in vivo
Excerpt: as §1, §2, §3, §4

[5] = 1 μM, average value, preincubation 10 min, rat
[6] = 10 μM, average value, preincubation 10 min, rat
[7] = 100 μM, average value, preincubation 10 min, rat
[8] = 1000 μM, average value, preincubation 10 min, rat

Row | SMILES | Platelet aggregation ID100 (minimum concentration for inhibiting completely (100%) the platelet aggregating effect by sodium arachidonate) [1] | LD50 [2] | inhibition at 1 µM ([3]; Rattus norvegicus) | inhibition at 10 µM ([3]; Rattus norvegicus) | inhibition at 100 µM ([3]; Rattus norvegicus) | inhibition at 1000 µM ([3]; Rattus norvegicus) | inhibition at 1 µM [3, 5] | inhibition at 10 µM [3, 6] | inhibition at 100 µM [3, 7] | inhibition at 1000 µM [3, 8] | acute toxicity (in words) [4]
1 | CN1CCCN(C(c2ccccc2)c2ccc(Cl)cc2)CC1 (stereo not drawn) [VI] | > 1000 µM | 350 mg/kg | 15% | 48% | 80% | 100% |  |  |  |  | 
2 | O=C(O)[C@H]1CC[C@H](CN=Cc2ccc(O)cc2O)CC1 [III] | > 1000 µM | > 3000 mg/kg |  |  |  |  | 0% | 12% | 42% | 92% | 
3 | COc1cc(C=NC[C@H]2CC[C@H](C(=O)O)CC2)cc(OC)c1OC [Example 8 sodium salt, trans-4-[N-(3',4',5'-trimethoxybenzylidene)aminomethyl]cyclohexane-1-carboxylic acid] |  |  |  |  |  |  |  |  |  |  | low acute toxicity
4 | COc1ccc(C=NC[C@H]2CC[C@H](C(=O)O)CC2)cc1OC [Example 7 sodium salt, sodium salt of trans-4-[N-(3',4'-dimethoxybenzylidene)aminomethyl]cyclohexane-1-carboxylic acid] |  |  |  |  |  |  |  |  |  |  | low acute toxicity
5 | O=C(O)[C@H]1CC[C@H](CN=Cc2cccc(O)c2O)CC1 [II] |  | > 3000 mg/kg |  |  |  |  | 0% | 25% | 66% | 100% | 
6 | COc1ccccc1C=NC[C@H]1CC[C@H](C(=O)O)CC1 [IV] |  | > 3000 mg/kg |  |  |  |  | 0% | 0% | 27% | 94% | 
7 | COc1ccc2c(c1)c(CC(=O)O)c(C)n2C(=O)c1ccc(Cl)cc1 [V] |  | 30 mg/kg | 0% | 0% | 25% | 79% |  |  |  |  | 
8 | COc1cc(C=NC[C@H]2CC[C@H](C(=O)O)CC2)ccc1O [Example 9 sodium salt, trans-4-[N-(3'-methoxy-4'-hydroxybenzylidene)aminomethyl]cyclohexane-1-carboxylic acid] |  |  |  |  |  |  |  |  |  |  | low acute toxicity
9 | O=C(O)[C@H]1CC[C@H](CN=Cc2ccccc2O)CC1 [I] | > 1000 µM | ~2000 mg/kg |  |  |  |  | 0% | 0% | 39% | 93% | 
